Test results taken from patent US6897203B2, “Polysaccharidic esters of retinoic acid” (priority 2001, dated 2005).

Columns and labels:
[1] = system: P19 cells, embryonal pluripotent murine teratocarcinoma cell line; settings: after 4 days of treatment, RT-PCR and RNase protection; for prodynorphin gene expression: P19 indifferentiated cells in suspension; for gene induction of the GATA-4 and Nkx-2.5 genes: P19 indifferentiated cells, follows the prodynorphin increase
Procedure: The experiments were carried out on P19 cells, embryonal pluripotent murine teratocarcinoma cell line (European Collection of Cell Cultures, UK). These cultured cells indifferentiately proliferate but can be transformed into several cell phenotypes in the presence of differentiating agents, thus selectively summarising the first molecular events that take place during the embryonal growth. […] P19 cells are cultivated in a suspension in alpha-mem medium in 60 mm Petri dishes, either in the absence or in the presence of the hyaluronan esters of the invention. After 4 days of treatment, the total RNA was extracted according to the procedure described by Chomczynsky and Sacchi (Chomczynsky, P., N. Sacchi, Anal. Biochem. 162: 156-159, 1987) and the expression of specific transcripts was evaluated by RT-PCR and RNase protection.

[2] = system: P19 cells, embryonal pluripotent murine teratocarcinoma cell line; settings: cultured P19 cells; McBurney et al., Nature 1982; cited from earlier work

Molecule | prodynorphin gene expression [1] | gene induction of the GATA-4 and Nkx-2.5 genes [1] | differentiation phenotype of P19 cells in the presence of a differentiating agent [2]
Hyaluronan Ester with Trans-Retinoic Acid [Example 3] | marked increase | gene induction | –
Ester of Hyaluronan with Trans-Retinoic Acid [Example 4] | marked increase | gene induction | –
C[S+](C)[O-] [DMSO, dimethylsulphoxide] | – | – | turn into myocardial cells supplied with spontaneous contractile activity
CC(C=CC1=C(C)CCCC1(C)C)=CC=CC(C)=CC(=O)O [retinoic acid, 3,7-dimethyl-9-(2,6,6-trimethyl-1-cyclohexene-1-yl)-2,4,6,8-nonatetraenoic acid] | – | – | turn into neuronal cells
